From article PMC9544318, “Advanced Pyrrolidine‐Carbamate Self‐Immolative Spacer with Tertiary Amine Handle Induces Superfast Cyclative Drug Release” (Chemmedchem, 2022)

Columns and labels:
Type in all cases: physicochemical
[1] = Carbamate cleavage study of SI spacer-CPT modules (CPT release by HPLC); settings: for half-life at 1 mM: CPT release by HPLC, read-out: carbamate half-life (t1/2) (converted)
Excerpt: We undertook the structural optimization of the pyrrolidine‐carbamate SI spacer Sp2, aimed at decreasing the carbamate half‐life (t 1/2) for a faster hydroxy cargo release. The molecular structures of the synthesized SI spacers are reported in Figure 2 (all synthetic procedures are reported in the Supporting Information). Here, the Sp2 pyrrolidine ring was replaced by either a piperidine (in Sp4) or an isoxazolidine (in Sp5) cycle. In particular, Sp4 was designed to assess the impact of the cyclic amine ring size on the SI spacer degradation.[20] On the other hand, the use of an isoxazolidine ring in Sp5 aimed at evaluating the contribution of the “α‐effect” to the spacer reactivity.[21] While Sp4 was prepared starting from racemic 2‐piperidinecarbaldehyde, the synthesis of Sp5 was inspired by Bode's route to 5‐oxaproline.[22] Moreover, as we recently observed the inhibitory effects on the spacer cyclization given by a phosphate monoester group,[23] we devised the SI spacer modification with a basic handle. Since at physiological pH (approximately 7.4) the pyrrolidine is mostly present as protonated species, a second amine handle may force the pyrrolidine deprotonation, thus lowering its pK a value and increasing its nucleophilic character.[24] To this end, SI spacers Sp3 and Sp6/8 were endowed with a tertiary amine handle connected either at the carbamate N atom (in Sp3 and Sp7) or at the pyrrolidine ring (in Sp6 and Sp8). While the former spacers were rapidly obtained by reductive amination of Boc‐L‐prolinal, the latter were prepared by multistep synthesis, starting from oxygenated proline derivatives, such as 4‐oxo‐L‐proline and hydroxyproline. Firstly, the exocyclic secondary amine of SI spacers Sp3/8 was conjugated to the tertiary hydroxy group of the anticancer drug Camptothecin (CPT) via carbamate bond. As described recently,[19, 23] the final spacer‐drug modules Sp3/8‐CPT (Figure 2) were isolated as trifluoroacetate salts. These compounds were dissolved in a DMSO/phosphate buffer (pH 7.5) mixture and incubated at 37 °C, followed by aliquot collection at different time points and CPT release analysis by HPLC. The percentage of intact carbamate calculated from peak integrals was plotted versus time, and the spacer cyclization rates were estimated in terms of carbamate half‐life (t 1/2).
Carbamate Cleavage Studies
Experimental Procedure for Sp-CPT Modules
Stock solutions of lyophilized SI spacer-CPT modules (concentration: 10 mM in DMSO) were diluted 1:10 (final concentration: 1 mM) with 25 mM phosphate buffer (pH 7.4). Immediately after preparation, the mixtures were incubated at 37 °C. Aliquots were collected at different time points and diluted 1:4 (final concentration: 250 μ M) with a blocking buffer (8:2 H2O/CH3CN + 0.2% TFA).
The diluted aliquots were injected into an analytical HPLC-PDA system (see Materials and Methods), using the following parameters: […]
Gradient From 10% B to 50% B in 26 min.
Areas under the curve (AUC) of the detected peaks were measured using software associated to the HPLC systems. The rate of free OH release from the starting carbamate were obtained by calculating the relative ratios of AUC values corresponding to the amine -bearing prodrug and the free payload. Data were plotted versus time and half-lives (t1/2) were calculated by non -linear fitting (exponential, one-phase decay) using GraphPad Prism software .
(1 picture or pasted object on this page, not shown here)

[2] = CPT release under acidic conditions (acetate buffer, pH 5) mimicking the lysosomal compartment; settings: for carbamate stability under acidic conditions: compared with pH 7.5
Description: [26] The release of free CPT was also studied upon Sp2-CPT and Sp3-CPT incubation under more acidic conditions (acetate buffer, pH 5), mimicking the lysosomal compartment.

[3] = Solubility observed in aqueous buffer/DMSO mixture of the release study
Description: [25] The stability of carbamate Sp4-CPT may be ascribed to a suboptimal conformation of the piperidine spacer compared to the native pyrrolidine. […] The stability of Sp5-CPT was also analysed in a phosphate buffer solution at pH 7.5, with DMSO content increased to 20 % DMSO.

[4] = DMSO/phosphate buffer (pH 7.5), 37 °C

SMILES	half-life at 1 mM [1, 4]	carbamate stability under acidic conditions [2]	further results
CC[C@@]1(OC(=O)N(C)C[C@@H]2C[C@H](N(C)C)CN2)C(=O)OCc2c1cc1n(c2=O)Cc2cc3ccccc3nc2-1 [Sp6-CPT]	5.5 h	–	–
CC[C@@]1(OC(=O)N(CCN(C)C)C[C@@H]2CCCN2)C(=O)OCc2c1cc1n(c2=O)Cc2cc3ccccc3nc2-1 [Sp3-CPT]	0.9 h	much more stable	half-life compared with reference Sp2-CPT [1, 4]: four times shorter; drug release activity under acidic conditions ([2]; compared with Sp2 reference): consistently higher drug release activity than the Sp2 reference
CC[C@@]1(OC(=O)N(C)C[C@@H]2CCON2)C(=O)OCc2c1cc1n(c2=O)Cc2cc3ccccc3nc2-1 [Sp5-CPT]	–	–	cyclative carbamate cleavage (CPT release) [1, 4]: complete inhibition of the cyclative carbamate cleavage; CPT release ([1]; phosphate buffer pH 7.5, 20 % DMSO): no CPT release was observed; solubility ([3]; 9 : 1 aqueous buffer/DMSO mixture, pH 7.5): partially insoluble; solubility ([3]; phosphate buffer pH 7.5, DMSO content increased to 20 %): perfectly soluble
CC[C@@]1(OC(=O)N(CCCN(C)C)C[C@@H]2CCCN2)C(=O)OCc2c1cc1n(c2=O)Cc2cc3ccccc3nc2-1 [Sp7-CPT]	3.3 h	–	–
CC[C@@]1(OC(=O)N(C)C[C@@H]2C[C@@H](OCCN(C)C)CN2)C(=O)OCc2c1cc1n(c2=O)Cc2cc3ccccc3nc2-1 [Sp8-CPT]	3.2 h	–	–
CC[C@@]1(OC(=O)N(C)C[C@@H]2CCCN2)C(=O)OCc2c1cc1n(c2=O)Cc2cc3ccccc3nc2-1 [Sp2-CPT, reference compound]	3.6 h	much more stable	–
